Experimental data from patent publication US20100267561A1, “HERBICIDAL PYRIDAZINONE DERIVATIVES” (priority 2007, published 2010).
Where two headings read alike, the source gives them in different places.

Columns and labels:
Format in all cases: in vivo
[1] = test system: cocklebur (Xanthium strumarium); assay: Test B pre-/postemergence plant response; conditions: Xanthium strumarium, read-out: Plant response rating, Cocklebur; for pest or weed control at 62 g/ha: 62 g ai/ha; for pest or weed control at 125 g/ha: 125 g ai/ha
In short: (§1)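 Seeds were sown and sprayed preemergence, while plants at 2 to 18 cm (1- to 4-leaf stage) got postemergence sprays. Compounds were formulated in a non-phytotoxic solvent mixture with surfactant. After 13 to 15 days in a greenhouse, injury was rated visually against untreated controls, 0 (no effect) to 100 (complete control).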

[2] = test system: catchweed bedstraw (Galium aparine); assay: Test B pre-/postemergence plant response; conditions: Galium aparine, pre-emergence, Preemergence, read-out: Plant response rating, Galium
In short: as §1

[3] = test system: johnsongrass (Sorghum halepense); assay: Test B pre-/postemergence plant response; conditions: Sorghum halepense, read-out: Plant response rating, Johnsongrass; for pest or weed control at 16 g/ha: 16 g ai/ha; for pest or weed control at 31 g/ha: 31 g ai/ha, 100 complete control; for pest or weed control at 62 g/ha: 62 g ai/ha; for pest or weed control at 125 g/ha: 125 g ai/ha
In short: as §1

[4] = test system: large crabgrass (Digitaria sanguinalis); assay: Test B pre-/postemergence plant response; conditions: Digitaria sanguinalis, read-out: Plant response rating, Crabgrass, Large; for pest or weed control at 16 g/ha: 16 g ai/ha; for pest or weed control at 31 g/ha: 31 g ai/ha, 100 complete control; for pest or weed control at 62 g/ha: 62 g ai/ha; for pest or weed control at 125 g/ha: 125 g ai/ha
In short: as §1

[5] = test system: giant foxtail (Setaria faberii); assay: Test B pre-/postemergence plant response; conditions: Setaria faberi, read-out: Plant response rating, Foxtail, Giant; for pest or weed control at 16 g/ha: 16 g ai/ha; for pest or weed control at 31 g/ha: 31 g ai/ha, 100 complete control; for pest or weed control at 62 g/ha: 62 g ai/ha; for pest or weed control at 125 g/ha: 125 g ai/ha
In short: as §1

[6] = test system: goosegrass (Eleusine indica); assay: Test B pre-/postemergence plant response; conditions: Eleusine indica, read-out: Plant response rating, Goosegrass; for pest or weed control at 16 g/ha: 16 g ai/ha; for pest or weed control at 31 g/ha: 31 g ai/ha, 100 complete control; for pest or weed control at 62 g/ha: 62 g ai/ha; for pest or weed control at 125 g/ha: 125 g ai/ha
In short: as §1

[7] = test system: yellow nutsedge (Cyperus esculentus); assay: Test B pre-/postemergence plant response; conditions: Cyperus, read-out: Plant response rating, Nutsedge, Yellow; for pest or weed control at 16 g/ha: 16 g ai/ha; for pest or weed control at 31 g/ha: 31 g ai/ha, 100 complete control; for pest or weed control at 62 g/ha: 62 g ai/ha; for pest or weed control at 125 g/ha: 125 g ai/ha
In short: as §1

[8] = test system: common (oilseed) sunflower (Helianthus annuus); assay: Test B pre-/postemergence plant response; conditions: Helianthus annuus, pre-emergence, Preemergence, read-out: Plant response rating, Sunflower
In short: as §1

wild oat (Avena fatua) = assay: Test B pre-/postemergence plant response; conditions: Avena fatua, read-out: Plant response rating, Oat, Wild; for pest or weed control at 16 g/ha: 16 g ai/ha; for pest or weed control at 31 g/ha: 31 g ai/ha, 100 complete control; for pest or weed control at 62 g/ha: 62 g ai/ha; for pest or weed control at 125 g/ha: 125 g ai/ha
In short: as §1

[9] = test system: blackgrass (Alopecurus myosuroides); assay: Test B pre-/postemergence plant response; conditions: Alopecurus myosuroides, read-out: Plant response rating, Blackgrass; for pest or weed control at 16 g/ha: 16 g ai/ha; for pest or weed control at 31 g/ha: 31 g ai/ha, 100 complete control; for pest or weed control at 62 g/ha: 62 g ai/ha; for pest or weed control at 125 g/ha: 125 g ai/ha
In short: as §1

[10] = test system: common ragweed (Ambrosia elation); assay: Test B pre-/postemergence plant response; conditions: Ambrosia, read-out: Plant response rating, Ragweed; for pest or weed control at 16 g/ha: 16 g ai/ha; for pest or weed control at 31 g/ha: 31 g ai/ha, 100 complete control; for pest or weed control at 62 g/ha: 62 g ai/ha; for pest or weed control at 125 g/ha: 125 g ai/ha
In short: as §1

[11] = test system: wheat (Triticum aestivum); assay: Test B pre-/postemergence plant response; conditions: Triticum aestivum, read-out: Plant response rating, Wheat; for plant injury at 16 g/ha: 16 g ai/ha; for plant injury at 31 g/ha: 31 g ai/ha, 100 complete control; for plant injury at 62 g/ha: 62 g ai/ha; for plant injury at 125 g/ha: 125 g ai/ha
In short: as §1

[12] = test system: lambsquarters (Chenopodium album); assay: Test B pre-/postemergence plant response; conditions: Chenopodium album, read-out: Plant response rating, Lambsquarters; for pest or weed control at 16 g/ha: 16 g ai/ha; for pest or weed control at 31 g/ha: 31 g ai/ha, 100 complete control; for pest or weed control at 125 g/ha: 125 g ai/ha
In short: as §1

[13] = test system: winter barley (Hordeum vulgare); assay: Test B postemergence plant response; conditions: Postemergence
In short: (§2)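 Following treatment of plants 2 to 18 cm high after emergence, pots were held under glass for 13 to 15 days; efficacy was then graded visually, 100 denoting complete control and a dash no test result.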

[14] = test system: windgrass (Apera spica-venti); assay: Test B postemergence plant response; conditions: Postemergence
In short: as §2

[15] = post-emergence, Postemergence, scale 0 to 100
[16] = pre-emergence, Preemergence, scale 0 to 100
[17] = 16 g ai/ha, scale 0 to 100 (0 no effect, 100 complete control)
[18] = 31 g ai/ha, 0 to 100 scale, 0 no effect, 100 complete control
[19] = post-emergence, Postemergence, scale 0 to 100, 0 no effect
[20] = pre-emergence, Preemergence, scale 0 to 100 (0 no effect, 100 complete control)
[21] = pre-emergence, Preemergence, 0 to 100 scale, 0 no effect
[22] = 31 g ai/ha, scale 0 to 100, 0 no effect, 100 complete control

CCc1cc(-c2ccc(C(F)(F)F)cc2)nn1-c1c(O)cnn(C)c1=O [Compound 11, 4-[5-ethyl-3-[4-(trifluoromethyl)phenyl]-1H-pyrazol-1-yl]-5-hydroxy-2-methyl-3(2H)-pyridazinone]
pest or weed control at 16 g/ha ([1]; post-emergence, Postemergence, 16 g ai/ha, scale 0 to 100): 0% | pest or weed control at 31 g/ha ([1]; post-emergence, Postemergence, 31 g ai/ha, scale 0 to 100, 0 no effect, 100 complete control): 0% | pest or weed control at 62 g/ha [1, 15]: 0% | pest or weed control at 125 g/ha [1, 15]: 0% | pest or weed control at 62 g/ha [1, 16]: 0% | pest or weed control at 125 g/ha [1, 16]: 0% | pest or weed control at 16 g/ha [2, 17]: 0% | pest or weed control at 31 g/ha [2, 18]: 0% | pest or weed control at 62 g/ha ([2]; 62 g ai/ha, scale 0 to 100): 0% | pest or weed control at 125 g/ha ([2]; 125 g ai/ha, scale 0 to 100): 0% | pest or weed control at 16 g/ha [3, 15]: 100% | pest or weed control at 31 g/ha [3, 19]: 100% | pest or weed control at 62 g/ha [3, 15]: 100% | pest or weed control at 125 g/ha [3, 15]: 100% | pest or weed control at 16 g/ha [3, 20]: 90% | pest or weed control at 31 g/ha [3, 21]: 98% | pest or weed control at 62 g/ha [3, 16]: 100% | pest or weed control at 125 g/ha [3, 16]: 100% | pest or weed control at 16 g/ha [4, 15]: 98% | pest or weed control at 31 g/ha [4, 19]: 100% | pest or weed control at 62 g/ha [4, 15]: 100% | pest or weed control at 125 g/ha [4, 15]: 100% | pest or weed control at 16 g/ha [4, 20]: 90% | pest or weed control at 31 g/ha [4, 21]: 90% | pest or weed control at 62 g/ha [4, 16]: 100% | pest or weed control at 125 g/ha [4, 16]: 100% | pest or weed control at 16 g/ha [5, 15]: 100% | pest or weed control at 31 g/ha [5, 19]: 100% | pest or weed control at 62 g/ha [5, 15]: 100% | pest or weed control at 125 g/ha [5, 15]: 100% | pest or weed control at 16 g/ha [5, 20]: 90% | pest or weed control at 31 g/ha [5, 21]: 90% | pest or weed control at 62 g/ha [5, 16]: 100% | pest or weed control at 125 g/ha [5, 16]: 100% | pest or weed control at 16 g/ha [6, 15]: 100% | pest or weed control at 31 g/ha [6, 19]: 100% | pest or weed control at 62 g/ha [6, 15]: 100% | pest or weed control at 125 g/ha [6, 15]: 100% | pest or weed control at 16 g/ha [6, 20]: 85% | pest or weed control at 31 g/ha [6, 21]: 90% | pest or weed control at 62 g/ha [6, 16]: 100% | pest or weed control at 125 g/ha [6, 16]: 100% | pest or weed control at 16 g/ha [7, 15]: 0% | pest or weed control at 31 g/ha [7, 19]: 0% | pest or weed control at 62 g/ha [7, 15]: 0% | pest or weed control at 125 g/ha [7, 15]: 0% | pest or weed control at 16 g/ha [7, 20]: 0% | pest or weed control at 31 g/ha [7, 21]: 0% | pest or weed control at 62 g/ha [7, 16]: 0% | pest or weed control at 125 g/ha [7, 16]: 0% | pest or weed control at 16 g/ha [8, 17]: 0% | pest or weed control at 31 g/ha [8, 18]: 0% | pest or weed control at 62 g/ha ([8]; 62 g ai/ha, scale 0 to 100): 0% | pest or weed control at 125 g/ha ([8]; 125 g ai/ha, scale 0 to 100): 0% | pest or weed control at 16 g/ha (wild oat (Avena fatua); [15]): 100% | pest or weed control at 31 g/ha (wild oat (Avena fatua); [19]): 100% | pest or weed control at 62 g/ha (wild oat (Avena fatua); [15]): 100% | pest or weed control at 125 g/ha (wild oat (Avena fatua); [15]): 100% | pest or weed control at 16 g/ha (wild oat (Avena fatua); [20]): 80% | pest or weed control at 31 g/ha (wild oat (Avena fatua); [21]): 98% | pest or weed control at 62 g/ha (wild oat (Avena fatua); [16]): 98% | pest or weed control at 125 g/ha (wild oat (Avena fatua); [16]): 100% | pest or weed control at 16 g/ha [9, 15]: 100% | pest or weed control at 31 g/ha [9, 19]: 100% | pest or weed control at 62 g/ha [9, 15]: 100% | pest or weed control at 125 g/ha [9, 15]: 100% | pest or weed control at 16 g/ha [9, 20]: 100% | pest or weed control at 31 g/ha [9, 21]: 100% | pest or weed control at 62 g/ha [9, 16]: 100% | pest or weed control at 125 g/ha [9, 16]: 100% | pest or weed control at 16 g/ha [10, 15]: 0% | pest or weed control at 31 g/ha [10, 19]: 0% | pest or weed control at 62 g/ha [10, 15]: 0% | pest or weed control at 125 g/ha [10, 15]: 0% | pest or weed control at 16 g/ha [10, 20]: 0% | pest or weed control at 31 g/ha [10, 21]: 0% | pest or weed control at 62 g/ha [10, 16]: 0% | pest or weed control at 125 g/ha [10, 16]: 0% | plant injury at 16 g/ha [11, 15]: 90% | plant injury at 31 g/ha [11, 19]: 100% | plant injury at 62 g/ha [11, 15]: 100% | plant injury at 125 g/ha [11, 15]: 100% | plant injury at 16 g/ha [11, 20]: 90% | plant injury at 31 g/ha [11, 21]: 95% | plant injury at 62 g/ha [11, 16]: 95% | plant injury at 125 g/ha [11, 16]: 100% | pest or weed control at 16 g/ha [12, 15]: 0% | pest or weed control at 31 g/ha [12, 19]: 0% | pest or weed control at 62 g/ha ([12]; post-emergence, Postemergence, 62 g ai/ha, scale 0 to 100): 0% | pest or weed control at 125 g/ha [12, 15]: 0% | pest or weed control at 16 g/ha [12, 20]: 0% | pest or weed control at 31 g/ha [12, 21]: 0% | pest or weed control at 125 g/ha [12, 16]: 0% | Plant response rating, Barley ([13]; 16 g ai/ha, scale 0 to 100, 0 no effect, 100 complete control): 90 | Plant response rating, Barley [13, 22]: 95 | Plant response rating, Barley ([13]; 62 g ai/ha, scale 0 to 100): 100 | Plant response rating, Barley ([13]; 125 g ai/ha, scale 0 to 100): 100 | Plant response rating, Windgrass ([14]; 16 g ai/ha, scale 0 to 100): 100 | Plant response rating, Windgrass [14, 22]: 100 | Plant response rating, Windgrass ([14]; 62 g ai/ha, scale 0 to 100): 100 | Plant response rating, Windgrass ([14]; 125 g ai/ha, scale 0 to 100): 100
